Numbered stars: 1 amine (or outer) side, 2 acyl side, 3 side chain; on linkers, the order of the positions; unused ones are H or OH. Square brackets hold non-standard residues; d marks the D form. Peptide text beside a SMILES is read from it. ξ: configuration not given here. X1 = CSCC[C@H](NC(=N)[C@H](Cc1c[nH]cn1)N[*:1])C(=O)[*:2]; pS = N[C@@H](COP(=O)(O)O)C(=O)O; Ile(3ξ) = CCC(C)[C@H](N)C(=O)O
Assays:
MRL/lpr mice [1] = experiment: Survival analysis in MRL/lpr mice; type: in vivo, mouse; details: female MRL/lpr mice, peptide intravenously from five weeks of age; NaCl control 25 weeks
Experimental: It has been determined that this mouse strain carries a mutation in the fas gene. Also, the MRL/lpr is a useful model to study behavioural and cognitive deficits found in autoimmune diseases and the efficacy of immunosuppressive agents [Monneaux et al., 2003, Eur. J. Immunol. 33, 287-296].
Five-week-old female MRL/lpr mice received P140 or peptide P140(MO) intravenously as described (Monneaux et al., 2003, Eur. J. Immunol. 33, 287-296). All experimental protocols were carried out with the approval of the local Institutional Animal Care and Use Committee (CREMEAS). As control, mice were injected with NaCl.
Twenty mice were used for each peptide or NaCl.
Statistical tests were performed using GraphPad Prism version 5.0. The two-way ANOVA test was used to analyze statistical significance of proteinuria differences between control and peptide-treated groups of mice. Survival of control and P140 analogue-treated female MRL/lpr mice was analyzed by the Kaplan-Meier method, and the significance of differences was determined by the log-rank test. For the other variables, statistical significance was assessed using the Student's t-test. p values less than 0.05 were considered significant.

HSC70 protein = molecular target: T1, HSC70 protein (Bos taurus, UniProt P19120); experiment: Affinity of the peptides for HSC70 protein (BIAcore); type: binding, bovine
T1 construct: purchased Stressgen
T1 sequence (P19120 whole entry): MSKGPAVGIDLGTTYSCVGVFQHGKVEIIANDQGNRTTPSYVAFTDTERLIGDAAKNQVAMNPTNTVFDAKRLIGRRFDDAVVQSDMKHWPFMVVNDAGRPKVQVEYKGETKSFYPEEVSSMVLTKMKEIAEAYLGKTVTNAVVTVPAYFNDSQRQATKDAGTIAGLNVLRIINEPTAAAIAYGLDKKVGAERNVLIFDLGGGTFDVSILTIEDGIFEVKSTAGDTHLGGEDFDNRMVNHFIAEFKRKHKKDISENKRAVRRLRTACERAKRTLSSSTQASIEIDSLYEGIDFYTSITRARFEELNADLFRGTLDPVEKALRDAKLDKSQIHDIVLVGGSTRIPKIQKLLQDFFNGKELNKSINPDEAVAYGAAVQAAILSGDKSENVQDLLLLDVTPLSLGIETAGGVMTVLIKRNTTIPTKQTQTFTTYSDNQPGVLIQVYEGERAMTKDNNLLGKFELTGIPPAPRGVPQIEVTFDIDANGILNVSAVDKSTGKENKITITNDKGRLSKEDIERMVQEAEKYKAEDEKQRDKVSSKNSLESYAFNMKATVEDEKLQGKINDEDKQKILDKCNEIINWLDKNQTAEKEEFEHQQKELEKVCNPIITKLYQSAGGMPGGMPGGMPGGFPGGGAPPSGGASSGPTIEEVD
Experimental: BIAcore 3000 system (Biacore AB) was used to evaluate the binding of P140 peptides to HSC70 protein (Page et al., 2009, and 2011). Sensor chip CMS, surfactant P20, amine coupling kit containing N-hydroxysuccinimide (NHS) and N-ethyl-N′-dimethylaminopropyl carbodiimide (EDC), 2-(2-pyridinyldithio)ethaneamine (PDEA) and ethanolamine were from Biacore AB. Biosensor assays were performed with HBS-EP buffer as running buffer (10 mM HEPES, 150 mM NaCl, 3 mM EDTA, 0.005% surfactant P20, pH 7.4). The compounds were diluted in the running buffer. The sensor chip surface was regenerated after each experiment by injecting 10 μL of 10 mM HCl. Recombinant bovine HSC70 (Stressgen) was immobilized on flow cells of a CM5 sensor chip through its thiol groups using 35 μL PDEA in 50 mM borate buffer, pH 8.3 on the NHS/EDC-activated matrix. Then, 35 μL of HSC70 (100 μg/mL in formate buffer, pH 4.3) were injected until a response of 13,000 response units (RU) corresponding to 13 ng/mm^2 of HSC70 was immobilized. Twenty μL of a 50 mM cysteine/1 M NaCl solution was used to saturate unoccupied sites on the chip. The direct binding measurement of P140 peptides to HSC70 was carried out at 25° C. with a constant flow rate of 20 μL/min. P140 peptide and analogues were injected in the flux at different concentrations for 3 min, followed by a dissociation phase of 3 min. The kinetic parameters were calculated using the BIAeval 3.1 software on a personal computer. Analysis was performed using the simple 1:1 Langmuir binding model. The specific binding profiles were obtained after subtracting the response signal from the control empty channel and from blank-buffer injection. The fitting to each model was judged by the χ^2 value and randomness of residue distribution compared to the theoretical model.

MRL/lpr mice [2] = experiment: MRL/lpr mouse model of Gougerot-Sjögren syndrome (salivary glands); type: in vivo
Experimental: In this study MRL/lpr female 11-12 week old mice were used with 10 mice per group for statistical analysis. Each mouse received a single injection by retro-orbital, 100 μg of peptide P140 of 100 μl in […] NaCl. After 5 days, the mouse blood was collected in heparinized tube and salivary glands (GSS) were removed and placed in Eppendorf tubes containing PBS pH 7.4.
The number of foci site (FS) is determined for each mouse. A focus is defined as an aggregate of 50 or more cells.
The level of inflammation SG is determined semiquantitatively by a scoring system (0-3 scale): Grade 0: no inflammatory cells; Grade 1: few perivascular inflammatory and periductal Infiltrates (<100 cells); Grade 2: moderate number of perivascular inflammatory and periductal Infiltrates (100-500 cells); Grade 3: extensive inflammation with inflammatory foci broad (>500 cells).
Cells of total salivary glands stained with fluorescently were labeled antibodies for 40 min at 4° C., Were Collected data by FACSCalibur.
The weight of salivary glands Was Measured after-excision. DNase I (1 mg/ml) and collagenase D (50 μg/ml) were used to digest the salivary glands. Total cell counts were evaluated after the digestion.
The MRL/lpr mice (10 mice per arm) were injected with peptide P140 (100 μl/mouse iv). Five days after injection the mice were sacrificed and SGs collected as indicated above. The tissue was cut by the cryostat sections of 5 μm. The sections were labeled with hematoxylin/eosin staining is the method most frequently used in tissue histology. The level of inflammation and the number of FS were determined (FIGS. 19 and 20). Representative pictures are from sample control group 4 and group Treated sample (Bar 500 μm).

[3] = tested on: peripheral T cells from lupus patients; details: cited from earlier work
[4] = BIAcore, 25° C., 1:1 Langmuir model, global fit
[5] = 5 days after one single iv injection, flow cytometry

For `CCC(C)[C@H](NC(=O)[C@H](Cc1ccccc1)NC(=O)[C@H](C)NC(=O)[C@H](Cc1ccc(O)cc1)NC(=O)CNC(=O)[C@H](CCCNC(=N)N)NC(=O)[C@@H]1CCCN1C(=O)[C@H](CCCCN)NC(=O)CNC(=O)[C@H](COP(=O)(O)O)NC(=O)[C@H](CCCNC(=N)N)NC(=O)[C@H](CCCCN)NC(=O)[C@H](CO)NC(=O)[C@H](Cc1ccc(O)cc1)NC(=O)[C@@H](NC(=O)[C@H](CCSC)NC(=N)[C@H](Cc1c[nH]cn1)NC(=O)[C@@H](NC(=O)[C@@H](N)CCCNC(=N)N)C(C)CC)C(C)C)C(=O)N[C@@H](CCC(=O)O)C(=O)N[C@@H](Cc1ccc(O)cc1)C(=O)O` (stereo partly drawn) [Compound P140] (H-R[Ile(3ξ)][X1]VYSKR[pS]GKPRGYAF[Ile(3ξ)]EY-OH), the “Median survival of mice” value (MRL/lpr mice [1]) was 29 weeks, the Rmax (HSC70 protein; BIAcore, 25° C., 1:1 Langmuir model) was 83.3 RU and the KA (HSC70 protein; [4]) was 144000 M⁻¹. It also gave a kd (HSC70 protein; [4]) of 0.00312 s⁻¹, a kon (HSC70 protein; BIAcore, 25° C., 1:1 Langmuir model, global fit, read-out: ka) of 450 M⁻¹ s⁻¹ and an RI (HSC70 protein; peptide 1.56 μM) of 12.1 RU. For the same compound, the Req (HSC70 protein; peptide 1.56 μM) was 15.3 RU, the kobs (HSC70 protein; peptide 1.56 μM) was 0.00382 s⁻¹ and the RI (HSC70 protein; peptide 3.12 μM) was 20.9 RU. It also gave a Req (HSC70 protein; peptide 3.12 μM) of 25.8 RU, a kobs (HSC70 protein; peptide 3.12 μM) of 0.00452 s⁻¹ and an RI (HSC70 protein; peptide 6.25 μM) of 33.8 RU. The Req (HSC70 protein; peptide 6.25 μM) was 39.5 RU, the kobs (HSC70 protein; peptide 6.25 μM) was 0.00593 s⁻¹ and the RI (HSC70 protein; peptide 12.5 μM) was 62.5 RU. The Req (HSC70 protein; peptide 12.5 μM) was 53.6 RU, the kobs (HSC70 protein; peptide 12.5 μM) was 0.00874 s⁻¹ and the RI (HSC70 protein; peptide 25 μM) was 118 RU. For the same compound, the Req (HSC70 protein; peptide 25 μM) was 65.2 RU, the kobs (HSC70 protein; peptide 25 μM) was 0.0144 s⁻¹ and the “Lymphocytic infiltration in the SGs” value (MRL/lpr mice [2]; 5 days after one single administration, hematoxylin/eosin) was “significantly reduced”. For the same compound, the “Weight of salivary glands (SGs)” value (MRL/lpr mice [2]; 5 days after one single iv injection) was “no statistically significant effect”, the “CD4+ T cells in SGs” value (MRL/lpr mice [2]; [5]) was “decreased” and the “Total number of B cells in SGs” value (MRL/lpr mice [2]; [5]) was “no statistically significant effect”. For the same compound, the “Total number of cells present in the SGs” value (MRL/lpr mice [2]; [5]) was “no apparent effect”, the “Proliferation of peripheral T cells from lupus patients” value ([3]; ex vivo (Monneaux et al., 2005)) was “does not induce proliferation” and the “Secretion of regulatory cytokine IL-10 in cell cultures” value ([3]; ex vivo, T cells from lupus patients (Monneaux et al., 2005)) was “high levels”.
